Where two headings read alike, the source gives them in different places.
Legend:
[1] = test system: patients with advanced refractory solid tumors; test: Phase I safety and tolerability (DLT, MTD, adverse events NCI-CTCAE 4.0); format: in vivo; details: for dose-limiting toxicity: in vivo
Text: Those patients received escalating doses of anlotinib daily for (1) four consecutive weeks (4/0) or (2) 2-week on/1-week off (2/1). […] If two DLTs were observed during the first cycle in a cohort, dose-escalation was halted and dose continued at a lower level until the MTD (the highest dose level for which the incidence of first-cycle DLT was <33 %) was identified. In the absence of two or more DLTs in a cohort, the dose was escalated in a modified Fibonacci scheme. Treatment cycles were repeated until disease progression, unacceptable toxicity, or withdrawal of consent.
Adverse events are graded into 0–5 according to the National Cancer Institute Common Terminology Criteria for Adverse Events (NCI-CTCAE 4.0). During treatment, blood pressure will be monitored every day. Patients with unresolved adverse reactions at the end of the test needed to be treated and followed until the reactions returned to the grade 1 degree or less, or stable.

[2] = test system: advanced refractory solid tumors; test: Tumor response by RECIST 1.1; format: in vivo, human
Procedure: Efficacies were evaluated according to NCI-proposed Response Evaluation Criteria In Solid Tumors (RECIST 1.1). The tumor will be assessed every two cycles including tumor-related symptoms and physical and imaging examination (CT or MRI) of superficial lesions. Physical and imaging examination of tumor lesions should be done at least four weeks after the first effect evaluation in patients with complete remission (CR), partial remission (PR), and stable disease (SD) to confirm efficacy.

[3] = Single-dose pharmacokinetics in cancer patients; format: in vivo, human; details: for AUC(0-t): read-out: AUC0–120h
Procedure: In single-dose studies, anlotinib were administered orally at dose of 5, 10, 12, or 16 mg anlotinib/person. Serial blood samples were collected in heparinized tubes before and at 0.5, 1, 2, 4, 8, 11, 24, 48, 72, 96, 120, 144, 168, 192, 216, and 240 h (samples of 144–240 h were collected only in 12 or 16 mg/person dose group) after dosing. In the 10 mg/person dose group, urine was sampled before and 0–2, 2–6, 6–11, 11–24, 24–34, 34–48, 48–58, 58–72, 72–96, and 96–120 h after dosing. In multiple-dose studies, there were two ways of multiple-dose administration. Initially, patients in 5 and 10 mg/person/day groups were treated consecutively for 28 days. Blood samples were collected 24 h after dosing on days 1, 2, 4, 7, 10, 13, 15, 16, 18, 21, 24, 28, and 29. Later, the other volunteers were given multiple doses of anlotinib at 10, 12, or 16 mg anlotinib/person/day in the 2/1 schedule for two cycles. Blood samples were collected 24 h after dosing on days 1, 4, 7, 10, 13, 15, 18, 22, 29, and 36. The collected blood samples were centrifuged to prepare plasma fractions; the urine samples were weighed after collection. All samples were stored at −70 °C for subsequent analysis. Concentrations of anlotinib were measured by liquid chromatography/mass spectrometry.
(§1) The maximum concentration (C max) and the time taken to achieve C max (T max) were obtained directly from the data with no interpolation. The area under concentration-time curve up to the last measured time point (AUC0 − t) was calculated by the trapezoidal rule. The elimination half-life (t 1/2) was calculated using the relationship 0.693/k. The k was estimated by linear regression analysis of the terminal portion of the log concentration-time data. The renal clearance (CLR) was calculated by dividing the cumulative amount excreted into urine (Cum.A e − U) by plasma AUC0 − t. Accumulation ratio (R ac) was used to indicate the extent of accumulation during multiple doses of anlotinib capsules and calculated using the following equation: Rac=C24hDay15/C24hDay1,
where C 24 h(Day1) and C 24 h(Day15) are plasma concentrations of anlotinib at 24 h after dosing on day 1 and day 15, respectively. Plasma pharmacokinetic (PK) parameters were determined using noncompartmental method with a Kinetica software package (version 5.0; Thermo Scientific, Philadelphia, PA).

[4] = Multiple-dose pharmacokinetics in cancer patients; format: in vivo, human
Procedure: In single-dose studies, anlotinib were administered orally at dose of 5, 10, 12, or 16 mg anlotinib/person. Serial blood samples were collected in heparinized tubes before and at 0.5, 1, 2, 4, 8, 11, 24, 48, 72, 96, 120, 144, 168, 192, 216, and 240 h (samples of 144–240 h were collected only in 12 or 16 mg/person dose group) after dosing. In the 10 mg/person dose group, urine was sampled before and 0–2, 2–6, 6–11, 11–24, 24–34, 34–48, 48–58, 58–72, 72–96, and 96–120 h after dosing. In multiple-dose studies, there were two ways of multiple-dose administration. Initially, patients in 5 and 10 mg/person/day groups were treated consecutively for 28 days. […] Concentrations of anlotinib were measured by liquid chromatography/mass spectrometry.
as §1, with “The k was estimated by linear regression analysis of the terminal portion of the log concentration-time data.” left out, “Rac=C24hDay15/C24hDay1, […]” for “Rac=C24hDay15/C24hDay1,”

VEGFR2/KDR = test system: VEGFR2/KDR; set-up: method as in details pending publication elsewhere; details: recombinant enzymes; ref details pending publication elsewhere; cited from earlier work
VEGFR3 = test system: VEGFR3; set-up: method as in details pending publication elsewhere; details: recombinant enzymes; ref details pending publication elsewhere; cited from earlier work
FGFR1-4 = details: especially FGFR2; to a greater extent than sorafenib; preclinical results; cited from earlier work
[5] = test system: tumor cells carrying mutations in PDGFR α, c-Kit, Met, and EGFR; details: preclinical background; cited from earlier work
[6] = test system: human tumor xenograft models (SW-620, SK-OV-3, SMMC-7721, Caki-1, U87MG, Calu-3); details: colon, ovarian, liver, renal, glioma, non-small cell lung; during dosing period; cited from earlier work
[7] = rats, cited from earlier work
[8] = dogs; cited from earlier work
[9] = tumor-bearing mice; cited from earlier work
[10] = test system: human cytochrome P450 3A4; details: in vitro; read-out: half maximum inhibitory concentration; cited from earlier work
[11] = test system: human cytochrome P450 2C9; details: in vitro; read-out: half maximum inhibitory concentration; cited from earlier work
[12] = 12 mg/day 2/1 schedule, 20 assessable patients
[13] = human, plasma, single oral dose 5 mg/person (n = 1)
[14] = human, plasma, single oral dose 10 mg/person (n = 4)
[15] = human, plasma, single oral dose 12 mg/person (n = 11)
[16] = human, plasma, single oral dose 16 mg/person (n = 4)
[17] = human, plasma, single oral dose 5-16 mg/person, range

COc1cc2c(Oc3ccc4[nH]c(C)cc4c3F)ccnc2cc1OCC1(N)CC1 [anlotinib]
dose-limiting toxicity ([1]; human): grade 3 hypertension and grade 3 fatigue | dose-limiting toxicity ([1]; human, 4 weeks): grade 3 hypertension | dose-limiting toxicity [1]: no DLT | maximum tolerated dose ([1]; once daily, 2/1 schedule): 12 mg | patients with tumor burden shrinkage ([2]; 12 mg once daily): More than 60% | partial response (PR) [2, 12]: 15% | partial response (PR), patients [2, 12]: 3 | patients with tumor burden shrinkage among SD [2, 12]: 12 | progressive disease (PD) [2, 12]: 15% | progressive disease (PD), patients [2, 12]: 3 | stable disease (SD), patients [2, 12]: 14 | half-life ([3]; human, plasma, oral, mean over doses, dose-independent): 96 ± 17 h | AUC(0-inf) [3, 13]: 687 ng·h/mL | Cmax [3, 13]: 5.8 ng/mL | Tmax [3, 13]: 11 h | half-life [3, 13]: 102 h | AUC(0-t) [3, 13]: 411 ng·h/mL | AUC(0-inf) [3, 14]: 562 ± 328 ng·h/mL | Cmax [3, 14]: 5.8 ± 2.8 ng/mL | Tmax [3, 14]: 6 ± 4.4 h | half-life [3, 14]: 95 ± 22 h | AUC(0-t) [3, 14]: 318 ± 133 ng·h/mL | AUC(0-inf) [3, 15]: 1070 ± 263 ng·h/mL | Cmax [3, 15]: 10.5 ± 2.9 ng/mL | Tmax [3, 15]: 7.3 ± 3.3 h | half-life [3, 15]: 116 ± 47 h | AUC(0-t) [3, 15]: 617 ± 194 ng·h/mL | AUC(0-inf) [3, 16]: 1580 ± 470 ng·h/mL | Cmax [3, 16]: 15.8 ± 3.2 ng/mL | Tmax [3, 16]: 11 ± 8.9 h | half-life [3, 16]: 98 ± 15 h | AUC(0-t) [3, 16]: 894 ± 305 ng·h/mL | MRT [3, 17]: 124 to 167 h | Tmax [3, 17]: 4 to 11 h | half-life [3, 17]: 64 to 136 h | CL renal ([3]; human, urine and plasma, single oral dose, urine sampled in 10 mg/person group, read-out: renal clearance CLR (converted)): 4 mL/h/kg | dose proportionality of AUC0–120h, Conclusion ([3]; single oral dose): Inconclusive | dose proportionality of AUC0–∞, Conclusion ([3]; single oral dose): Inconclusive | dose proportionality of C max, Conclusion ([3]; single oral dose): Inconclusive | fraction of the dose excreted into urine (f e − U) ([3]; single oral dose, urine sampled in 10 mg/person group): ~ 0.9% | day at which maximum plasma concentration was reached ([4]; 2/1 schedule, 2-week dosing): 14 days | accumulation ratio R ac (C24h Day15/C24h Day1) ([4]; multiple oral doses, mean): 12 ± 7 | potency relative to sorafenib (VEGFR2/KDR): ~500 times | potency relative to sunitinib (VEGFR2/KDR): approximately 20 times | potency relative to sorafenib (VEGFR3): ~500 times | potency relative to sunitinib (VEGFR3): approximately 20 times | inactivation of FGFR1-4 (FGFR1-4): significantly inactivated | antitumor activity against tumor cells carrying mutations [5]: showed antitumor activity | activity against human tumor xenograft models [6]: broad activity | oral bioavailability ([7]; oral): 23–45% | exposure level in lung, kidneys, liver, heart compared with plasma [7]: significant higher | exposure level in the brain compared with plasma level [7]: comparable | oral bioavailability [8]: 47–74% | concentration in tumor tissue relative to plasma [9]: 2.4–2.6 times | IC50 [10]: 110 nM | IC50 [11]: 250 nM
